Source: patent publication US10806871B2, “Inhalable dry powders” (priority 2012, dated 2020)

Experiment: Solubility of therapeutic agents in water or ethanol
Conditions: not given

Compound | solubility in ethanol | solubility in water
OCc1cc(C(O)CNCCCCCCOCCCCc2ccccc2)ccc1O (centres unmarked) [salmeterol xinafoate] | slightly soluble in ethanol | practically insoluble in water

Experiment: not given
Conditions: at 20 C; cited from earlier work

Compound | solubility
OC[C@H]1O[C@H](O[C@H]2O[C@H](CO)[C@@H](O)[C@H](O)[C@H]2O)[C@H](O)[C@@H](O)[C@@H]1O [trehalose] | 68.9 g per 100 g of water

Same assay, conditions: cited from earlier work

Compound | solubility in water
OC[C@@H](O)[C@@H](O)[C@H](O)[C@H](O)CO [mannitol] | about 182 g/L

Experiment: not given
Conditions: listing; cited from earlier work

Compound | Bioavailability
C[C@]12CC[C@H]3[C@@H](CCC4=CC(=O)CC[C@@]43C)[C@@H]1CC[C@@H]2O [Testosterone] | Low
CC1CC(OC(=O)C(O)c2ccccc2)CC(C)(C)C1 (centres unmarked) [Cyclandelate] | Low
CN1CCC[C@@H]1CCO[C@](C)(c1ccccc1)c1ccc(Cl)cc1 [Clemastine] | Low
NC(N)=Nc1nc(CSCCC(N)=NS(N)(=O)=O)cs1 [Famotidine] | Low
OC(CCN1CCCCC1)(c1ccccc1)C1CC2C=CC1C2 (centres unmarked) [Biperiden] | Low
CCCCCc1cc(O)c2c(c1)OC(C)(C)[C@@H]1CCC(C)=C[C@@H]21 [Dronabinol] | Low
CN[C@H]1CC[C@@H](c2ccc(Cl)c(Cl)c2)c2ccccc21 [Sertraline] | Low
COc1ccc2cc(CCC(C)=O)ccc2c1 [Nabumetone] | Low
CCCC1O[C@@H]2C[C@H]3[C@@H]4CCC5=CC(=O)C=C[C@]5(C)[C@H]4[C@@H](O)C[C@]3(C)[C@]2(C(=O)CO)O1 (some centres unmarked) [Budesonide] | Low
OCCN1CCN(CCCN2c3ccccc3Sc3ccc(C(F)(F)F)cc32)CC1 [Fluphenazine] | Low
CC(=O)OC[C@H]1O[C@@H]([S-])[C@H](OC(C)=O)[C@@H](OC(C)=O)[C@@H]1OC(C)=O.CCP(CC)CC.[Au+] [Auranofin] | Low
COc1ccc(CCN2CCC(Nc3nc4ccccc4n3Cc3ccc(F)cc3)CC2)cc1 [Astemizol] | Low-moderate
OCCN1CCN(CCCN2c3ccccc3Sc3ccc(Cl)cc32)CC1 [Perphenazine] | Low
Nc1ccc(O)c(C(=O)O)c1 [Mesalamine] | Low
CC(=O)S[C@@H]1CC2=CC(=O)CC[C@]2(C)[C@H]2CC[C@@]3(C)[C@@H](CC[C@@]34CCC(=O)O4)[C@H]12 [Spironolactone] | Low
COc1cc(N)c(Cl)cc1C(=O)NC1CCN(CCCOc2ccc(F)cc2)CC1OC (centres unmarked) [Cisapride] | Low
O=[N+]([O-])O[C@H]1CO[C@H]2[C@@H]1OC[C@H]2O[N+](=O)[O-] [Isosorbide dinitrate] | Low
C#C[C@]1(O)CC[C@H]2[C@@H]3CCC4=Cc5oncc5C[C@]4(C)[C@H]3CC[C@@]21C [Danazol] | Low
CCOC(=O)C1=C(C)NC(C)=C(C(=O)OC)C1c1cccc(Cl)c1Cl (centres unmarked) [Felodipine] | Low
COC(=O)C1=C(C)NC(C)=C(C(=O)OC(C)C)C1c1cccc2nonc12 (centres unmarked) [Isradipine] | Low
CCn1cc(C(=O)O)c(=O)c2cc(F)c(N3CCNCC3)cc21 [Norfloxacin] | Low

Experiment: not given
Conditions: listing, cf. PCT Publication WO/2004/062643; cited from earlier work

Compound | Solubility In Water
CN(C/C=C/C#CC(C)(C)C)Cc1cccc2ccccc12 [Terbinafine] | Slightly
CC(C(=O)O)c1ccc(-c2ccccc2)c(F)c1 (centres unmarked) [Flurbiprofen] | Slightly
COc1cc([C@@H]2c3cc4c(cc3[C@@H](O[C@@H]3O[C@@H]5CO[C@@H](C)O[C@H]5[C@H](O)[C@H]3O)[C@H]3COC(=O)[C@H]23)OCO4)cc(OC)c1O [Etoposide] | Very Slightly
CCC(C)n1ncn(-c2ccc(N3CCN(c4ccc(OCC5COC(Cn6cncn6)(c6ccc(Cl)cc6Cl)O5)cc4)CC3)cc2)c1=O (centres unmarked) [Itraconzole] | Insoluble
NC(=O)N1c2ccccc2C=Cc2ccccc21 [Carbamazepine] | Insoluble
COc1ccc2[nH]c([S+]([O-])Cc3ncc(C)c(OC)c3C)nc2c1 (centres unmarked) [Omeprazole] | Slightly
CC[C@H]1OC(=O)[C@H](C)[C@@H](O[C@H]2C[C@@](C)(OC)[C@@H](O)[C@H](C)O2)[C@H](C)[C@@H](O[C@@H]2O[C@H](C)C[C@H](N(C)C)[C@H]2O)[C@](C)(OC)C[C@@H](C)C(=O)[C@H](C)[C@@H](O)[C@]1(C)O [Clarithromycin] | Insoluble
C[C@]12CC[C@H]3[C@@H](CCC4=CC(=O)CC[C@@]43C)[C@@H]1CC[C@@H]2O [Testosterone] | Insoluble
CCOC(=O)C1=C(COCCN)NC(C)=C(C(=O)OC)C1c1ccccc1Cl (centres unmarked) [Amlodipine] | Slightly
CCc1cccc2c3c([nH]c12)C(CC)(CC(=O)O)OCC3 (centres unmarked) [Etodolac] | Insoluble
CC1CC(OC(=O)C(O)c2ccccc2)CC(C)(C)C1 (centres unmarked) [Cyclandelate] | Insoluble
Nc1nnc(-c2cccc(Cl)c2Cl)c(N)n1 [Lamotrigine] | Slightly
CN1CCC[C@@H]1CCO[C@](C)(c1ccccc1)c1ccc(Cl)cc1 [Clemastine] | Slightly soluble
CCOC(=O)[C@H](CCc1ccccc1)N[C@@H](C)C(=O)N1[C@H](C(=O)O)C[C@@H]2CCC[C@@H]21 [Ramipril] | Insoluble
Cc1nc2n(c(=O)c1CCN1CCC(c3noc4cc(F)ccc34)CC1)CCCC2 [Risperidone] | Insoluble
OC(CCN1CCCCC1)(c1ccccc1)C1CC2C=CC1C2 (centres unmarked) [Biperiden] | Sparingly soluble
CC(C)(C)NC(=O)[C@H]1CC[C@H]2[C@@H]3CC[C@H]4NC(=O)C=C[C@]4(C)[C@H]3CC[C@]12C [Finasteride] | Insoluble
CCCCCc1cc(O)c2c(c1)OC(C)(C)[C@@H]1CCC(C)=C[C@@H]21 [Dronabinol] | Insoluble
Cn1cnc([N+](=O)[O-])c1Sc1ncnc2nc[nH]c12 [Azathioprine] | Insoluble
CN1CCCC(n2nc(Cc3ccc(Cl)cc3)c3ccccc3c2=O)CC1 (centres unmarked) [Azelastine] | Insoluble
COc1ccc2cc(CCC(C)=O)ccc2c1 [Nabumetone] | Insoluble
CN1C(C(=O)Nc2ccccn2)=C(O)c2ccccc2S1(=O)=O [Piroxicam] | Sparingly
OCCN1CCN(CCCN2c3ccccc3Sc3ccc(C(F)(F)F)cc32)CC1 [Fluphenazine] | Insoluble
OCCN(CCO)c1nc(N2CCCCC2)c2nc(N(CCO)CCO)nc(N3CCCCC3)c2n1 [Dipyridamole] | Slightly
Cc1c(OCC(F)(F)F)ccnc1C[S+]([O-])c1nc2ccccc2[nH]1 (centres unmarked) [Lansoprazole] | Insoluble
Cc1nnc2n1-c1ccc(Cl)cc1C(c1ccccc1)=NC2 [Alprazolam] | Insoluble
CN1CCN(C2=Nc3cc(Cl)ccc3Nc3ccccc32)CC1 [Clozapine] | Slightly
CC(=O)O[C@H]1C(=O)[C@@]2(C)[C@H]([C@H](OC(=O)c3ccccc3)[C@]3(O)C[C@H](OC(=O)[C@H](O)[C@@H](NC(=O)c4ccccc4)c4ccccc4)C(C)=C1C3(C)C)[C@]1(OC(C)=O)CO[C@@H]1C[C@@H]2O [Paclitaxel] | Insoluble

Compound | Solubility In Water
CC(C)(C)c1ccc(C(O)CCCN2CCC(C(O)(c3ccccc3)c3ccccc3)CC2)cc1 (centres unmarked) [Terfenadine] | Slightly
C[C@@H]1C[C@H]2[C@@H]3CCC4=CC(=O)C=C[C@]4(C)[C@@]3(Cl)[C@@H](O)C[C@]2(C)[C@@]1(O)C(=O)CCl [Mometasone] | Insoluble
OC(Cn1cncn1)(Cn1cncn1)c1ccc(F)cc1F [Fluconazole] | Slightly
CC(=O)N1CCN(c2ccc(OCC3COC(Cn4ccnc4)(c4ccc(Cl)cc4Cl)O3)cc2)CC1 (centres unmarked) [Ketoconazole] | Insoluble
CC(=O)OC[C@H]1O[C@@H]([S-])[C@H](OC(C)=O)[C@@H](OC(C)=O)[C@@H]1OC(C)=O.CCP(CC)CC.[Au+] [Auranofin] | Slightly soluble
COc1ccc(CCN2CCC(Nc3nc4ccccc4n3Cc3ccc(F)cc3)CC2)cc1 [Astemizol] | Insoluble
O=C1NC(=O)C(c2ccccc2)(c2ccccc2)N1 [Phenytoin] | Insoluble
CC1=C(/C=C/C(C)=C/C=C/C(C)=C\C(=O)O)C(C)(C)CCC1 [Isotretinoin] | Insoluble
C=CCC1(CC(C)C)C(=O)NC(=O)NC1=O [Butalbital] | Insoluble
COCCCC/C(=N\OCCN)c1ccc(C(F)(F)F)cc1 [Fluvoxamine] | Sparingly
CC(C)Cc1ccc(C(C)C(=O)O)cc1 (centres unmarked) [Ibuprofen] | Insoluble
CCCC(CCC)C(=O)O [Divalproex] | Slightly
Cc1ccc(-c2nc3ccc(C)cn3c2CC(=O)N(C)C)cc1 [Zolpidem] | Sparingly
O=C(O)Cc1ccccc1Nc1c(Cl)cccc1Cl [Diclofenac sodium] | Sparingly
CC(=O)S[C@@H]1CC2=CC(=O)CC[C@]2(C)[C@H]2CC[C@@]3(C)[C@@H](CC[C@@]34CCC(=O)O4)[C@H]12 [Spironolactone] | Insoluble
CO/N=C(\C(=O)N[C@@H]1C(=O)N2C(C(=O)O)=C(COC(C)=O)CS[C@H]12)c1csc(N)n1 [Cefotaxime] | Sparingly
Cc1cccc(Nc2ccccc2C(=O)O)c1C [Mefenamic acid] | Slightly
COc1cc(N)c(Cl)cc1C(=O)NC1CCN(CCCOc2ccc(F)cc2)CC1OC (centres unmarked) [Cisapride] | Insoluble
COc1cc2nc(N3CCN(C(=O)C4COc5ccccc5O4)CC3)nc(N)c2cc1OC (centres unmarked) [Doxazosin] | Slightly
Cc1ncc2n1-c1ccc(Cl)cc1C(c1ccccc1F)=NC2 [Midazolam] | Insoluble
CC(CCc1ccc(O)cc1)NCCc1ccc(O)c(O)c1 (centres unmarked) [Dobutamine] | Sparingly
CCOC(=O)C1=C(C)NC(C)=C(C(=O)OC)C1c1cccc(Cl)c1Cl (centres unmarked) [Felodipine] | Insoluble
CC[C@H](C)C(=O)O[C@H]1C[C@@H](C)C=C2C=C[C@H](C)[C@H](CC[C@@H]3C[C@@H](O)CC(=O)O3)[C@H]21 [Lovastatin] | Insoluble
COC(=O)C1=C(C)NC(C)=C(C(=O)OC(C)C)C1c1cccc2nonc12 (centres unmarked) [Isradipine] | Insoluble
CCOC(=O)[C@H](CCc1ccccc1)N[C@@H](C)C(=O)N1CCC[C@H]1C(=O)O [Enalapril] | Sparingly
CO[C@]12C[C@@H](COC(=O)c3cncc(Br)c3)CN(C)[C@@H]1Cc1cn(C)c3cccc2c13 [Nicergoline] | Insoluble
C[C@@](Cc1ccc(O)c(O)c1)(NN)C(=O)O [Carbidopa] | Slightly
